Experimental data reported in ChEMBL document CHEMBL5120865, “Exploration of 6-methyl-7-(Hetero)Aryl-7-Deazapurine ribonucleosides as antileishmanial agents” (Eur J Med Chem, 2022).
Where “and” joins values, the source holds several entries; their conditions need not be identical. Identical values can stand only once.

What was measured:
[1] = Selectivity index, ratio of CC50 for Cytotoxicity against Swiss mouse peritoneal macrophages to EC50 for intracellular Leishmania infantum MHOM/MA(BE)/67 ITMAP263 amastigotes infected in Swiss mouse peritoneal macrophages; assay type: toxicity, cell-based; conditions: read-out: Ratio CC50/EC50
[2] = Toxicity in golden hamster infected with Leishmania infantum MHOM/MA(BE)/67 amastigotes assessed as body weight loss at 50 mg/kg, po SID and administered for 10 days and measured twice weekly; assay type: organism-based, Mesocricetus auratus; conditions: in vivo, 240 h, time 10 day
Leishmania infantum [3] = test: Antileishmanial activity against intracellular Leishmania infantum MHOM/MA(BE)/67 amastigotes infected in golden hamster assessed as reduction of amastigote burdens in liver at 50 mg/kg, po SID for 10 days by geimsa staining based microscopic analysis; assay type: functional; parameters: scale not given: the % may be the effect or the level left; conditions: time 10 day
[4] = Metabolic stability in mouse liver microsomes S9 fraction assessed as UGT-mediated metabolism by measuring parent compound remaining measured after 15 mins in presence of NADPH; assay type: ADME, subcellular; conditions: read-out: Stability
[5] = Metabolic stability in mouse liver microsomes S9 fraction assessed as UGT-mediated metabolism by measuring parent compound remaining measured after 30 mins in presence of NADPH; assay type: ADME, subcellular; conditions: read-out: Stability
[6] = Toxicity in golden hamster infected with Leishmania infantum MHOM/MA(BE)/67 amastigotes assessed as gross pathological changes at 50 mg/kg, po SID and measured after 10 days; assay type: organism-based, Mesocricetus auratus; conditions: in vivo, 240 h, time 10 day
[7] = Cytotoxicity against human MRC5 cells assessed as reduction in cell viability incubated for 3 days by resazurin dye based fluorescence analysis; assay type: toxicity; conditions: time 3 day
[8] = Metabolic stability in golden hamster liver microsomes S9 fraction assessed as UGT-mediated metabolism by measuring parent compound remaining measured after 30 mins in presence of NADPH; assay type: ADME, subcellular, Mesocricetus auratus; conditions: read-out: Stability
Leishmania infantum [9] = test: (§1) Antileishmanial activity against sodium stibogluconate, potassium antimonyl tartrate and MIL resistant intracellular Leishmania infantum MHOM/FR/96/LEM3323-CI4 MIL5C13 promastigotes infected in Swiss mouse peritoneal macrophages assessed as inhibition of parasite growth measured after 96 hrs by microscopic analysis; assay type: functional, organism-based; conditions: MHOM/FR/96/LEM3323-CI4 MIL5C13, Peritoneal macrophage
Cytochrome P450 = Cytochrome P450 (Homo sapiens, UniProt P04798+P05177+P05181+P08684+P10632+P10635+P11509+P11712+P13584+P20813+P20815+P20853+P24462+P24903+P33260+P33261+P51589+P78329+P98187+Q02928+Q08477+Q16678+Q16696+Q5TCH4+Q6VVX0+Q7Z449+Q8TAV3+Q96SQ9+Q9HB55); test: Metabolic stability in human liver microsomes S9 fraction assessed as CYP450-mediated metabolism by measuring parent compound remaining measured after 30 mins in presence of NADPH; assay type: ADME, subcellular; conditions: read-out: Stability
[10] = Clearance in golden hamster infected with Leishmania infantum MHOM/MA(BE)/67 amastigotes at 50 mg/kg, po SID and measured after 24 hrs by LC-MS/MS analysis; assay type: ADME, organism-based, Mesocricetus auratus; conditions: in vivo
[11] = Tmax in golden hamster infected with Leishmania infantum MHOM/MA(BE)/67 amastigotes at 50 mg/kg, po SID and measured after 10 days by LC-MS/MS analysis; assay type: ADME, organism-based, Mesocricetus auratus; conditions: in vivo, time 10 day
[12] = AUC (0 to 24) in golden hamster infected with Leishmania infantum MHOM/MA(BE)/67 amastigotes at 50 mg/kg, po SID and measured after 24 hrs by LC-MS/MS analysis; assay type: ADME, organism-based, Mesocricetus auratus; parameters: time 24 hrs, dose 50 mg/kg, route po; conditions: in vivo
Leishmania infantum [13] = test: as §1, with “PMM” for “MIL”, “PMM” for “MIL5C13”; assay type: functional, organism-based; conditions: Peritoneal macrophage
[14] = Volume of distribution in golden hamster infected with Leishmania infantum MHOM/MA(BE)/67 amastigotes at 50 mg/kg, po SID and measured after 10 days by LC-MS/MS analysis; assay type: ADME, organism-based, Mesocricetus auratus; conditions: in vivo, 240 h, time 10 day
Trypanosoma cruzi = test: Antitrypanosomal activity against nifurtimox-sensitive Tulahuen CL2 amastigotes expressing beta galactosidase infected in human MRC5 cells assessed as inhibition of parasite growth using chlorophenol red beta-D-galactopyranoside as substrate and measured after 7 days by spectrophotometric analysis; assay type: functional, organism-based; conditions: Tulahuen CL2, MRC5, 168 h, read-out: EC50
[15] = Metabolic stability in golden hamster liver microsomes S9 fraction assessed as CYP450-mediated metabolism by measuring parent compound remaining measured after 60 mins in presence of NADPH; assay type: ADME, subcellular, Mesocricetus auratus; conditions: read-out: Stability
[16] = Metabolic stability in mouse liver microsomes S9 fraction assessed as UGT-mediated metabolism by measuring parent compound remaining measured after 60 mins in presence of NADPH; assay type: ADME, subcellular; conditions: read-out: Stability
[17] = target: UDP-glucuronosyltransferases (UGTs) (Homo sapiens, UniProt O60656+O75310+O75795+P06133+P0DTE4+P0DTE5+P16662+P19224+P22309+P22310+P35503+P35504+P36537+P54855+Q6UWM9+Q9BY64+Q9HAW7+Q9HAW8+Q9HAW9); test: Metabolic stability in human liver microsomes S9 fraction assessed as UGT-mediated metabolism by measuring parent compound remaining measured after 30 mins in presence of NADPH; assay type: ADME, subcellular; conditions: read-out: Stability
Leishmania infantum [18] = test: Antileishmanial activity against intracellular Leishmania infantum MHOM/MA(BE)/67 amastigotes infected in golden hamster assessed as reduction of amastigote burdens in bone marrow at 50 mg/kg, po SID for 10 days by geimsa staining based microscopic analysis; assay type: functional; parameters: scale not given: the % may be the effect or the level left; conditions: time 10 day
[19] = Clearance in golden hamster infected with Leishmania infantum MHOM/MA(BE)/67 amastigotes at 50 mg/kg, po SID and measured after 10 days by LC-MS/MS analysis; assay type: ADME, organism-based, Mesocricetus auratus; conditions: in vivo, time 10 day
[20] = AUC (0 to 8) in golden hamster infected with Leishmania infantum MHOM/MA(BE)/67 amastigotes at 50 mg/kg, po SID and measured after 24 hrs by LC-MS/MS analysis; assay type: ADME, organism-based, Mesocricetus auratus; parameters: dose 50 mg/kg, time 24 hrs, route po; conditions: in vivo
[21] = Metabolic stability in mouse liver microsomes S9 fraction assessed as CYP450-mediated metabolism by measuring parent compound remaining measured after 60 mins in presence of NADPH; assay type: ADME, subcellular; conditions: read-out: Stability
[22] = Selectivity index, ratio of CC50 for cytotoxicity against human MRC5 cells to EC50 for Trypanosoma cruzi Tulahuen CL2 amastigotes expressing beta galactosidase infected in human MRC5 cells; assay type: toxicity, cell-based; conditions: read-out: Ratio CC50/EC50
[23] = Cmax in golden hamster infected with Leishmania infantum MHOM/MA(BE)/67 amastigotes at 50 mg/kg, po SID and measured after 10 days by LC-MS/MS analysis; assay type: ADME, organism-based, Mesocricetus auratus; parameters: dose 50 mg/kg, time 10 day, route po; conditions: in vivo
[24] = Metabolic stability in mouse liver microsomes S9 fraction assessed as CYP450-mediated metabolism by measuring parent compound remaining measured after 30 mins in presence of NADPH; assay type: ADME, subcellular; conditions: read-out: Stability
[25] = Half life in golden hamster infected with Leishmania infantum MHOM/MA(BE)/67 amastigotes at 50 mg/kg, po SID and measured after 24 hrs by LC-MS/MS analysis; assay type: ADME, organism-based, Mesocricetus auratus; conditions: in vivo
[26] = Metabolic stability in golden hamster liver microsomes S9 fraction assessed as UGT-mediated metabolism by measuring parent compound remaining measured after 15 mins in presence of NADPH; assay type: ADME, subcellular, Mesocricetus auratus; conditions: read-out: Stability
[27] = Metabolic stability in mouse liver microsomes S9 fraction assessed as CYP450-mediated metabolism by measuring parent compound remaining measured after 15 mins in presence of NADPH; assay type: ADME, subcellular; conditions: read-out: Stability
[28] = Cytotoxicity against Swiss mouse peritoneal macrophages assessed as reduction in cell viability measured after 5 days by microscopic analysis; assay type: toxicity, cell-based, Peritoneal macrophage; conditions: time 5 day

## Cc1ncnc2c1c(-c1cc(Cl)ccn1)cn2[C@@H]1O[C@H](CO)[C@@H](O)[C@H]1O
[1]
  selectivity ratio: > 94
[2]
  Activity: Non-Toxic
Leishmania infantum [3]
  Activity: 52.7%
[4]
  remaining at 0.25 h: 103%
[5]
  remaining at 0.5 h: 102%
[6]
  Activity: Non-Toxic
[7]
  CC50 at 72 h: > 64000 nM
[8]
  remaining at 0.5 h: 92%
Leishmania infantum [9]
  EC50: 730 nM
Cytochrome P450
  remaining at 0.5 h: 86%
[10]
  CL/F: 56.6 mL/min/kg
[11]
  Tmax: 0.5 h
[12]
  AUC at 24 h: 2080 ng·h/mL
Leishmania infantum [13]
  EC50: 790 nM
[14]
  Vd: 5.14 L/kg
Trypanosoma cruzi
  EC50: 830 nM
[15]
  remaining at 1 h: 87%
[16]
  remaining at 1 h: 100%
[17]
  remaining at 0.5 h: 96%
Leishmania infantum [18]
  Activity: 30.8%
[19]
  CL/F: 34.7 mL/min/kg
[20]
  AUC at 24 h: 1660 ng·h/mL
[21]
  remaining at 1 h: 94%
[22]
  selectivity ratio: > 77
[23]
  Cmax: 1210 ng/mL and 3.2 µM
[24]
  remaining at 0.5 h: 86%
[25]
  half-life: 2.7 h
[26]
  remaining at 0.25 h: 98%
[27]
  remaining at 0.25 h: 109%
[28]
  CC50 at 120 h: > 64000 nM
